EC50 data for 36 compounds are collected here from US20250170112A1, “ADENOSINE LIGANDS FOR THE TREATMENT OF NEUROLOGICAL DISORDERS” (Lucy Therapeutics, Inc., priority 2022, published 2025).

Assay [1] concerns the target T1, human Adenosine A1 receptor (Homo sapiens, UniProt P30542).
T1 construct: host or cells: CHO-K1
T1 sequence (P30542 1-326): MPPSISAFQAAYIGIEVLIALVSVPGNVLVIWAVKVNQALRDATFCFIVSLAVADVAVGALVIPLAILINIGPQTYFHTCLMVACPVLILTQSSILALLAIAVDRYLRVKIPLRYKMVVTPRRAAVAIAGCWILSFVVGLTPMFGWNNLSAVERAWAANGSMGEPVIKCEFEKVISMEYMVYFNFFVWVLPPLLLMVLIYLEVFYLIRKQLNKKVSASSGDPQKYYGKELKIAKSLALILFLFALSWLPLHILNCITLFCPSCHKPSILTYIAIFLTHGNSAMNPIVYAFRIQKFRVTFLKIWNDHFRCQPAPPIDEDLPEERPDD
The experiment in a line: GTPγS scintillation proximity assay, agonist testing. The class given is biochemical. To be noted: agonist activity; membrane extracts of CHO-K1 cells expressing recombinant human A1; read-out: A1AR EC50. Summed up:
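Agonist-stimulated [35S]GTPγS binding to membranes of CHO-K1 cells expressing recombinant human A1 receptor, in 20 mM HEPES pH 7.4, 100 mM NaCl, 10 μg/mL saponin, with receptor-optimized MgCl2 and GDP. GTPγ[35S] 0.1 nM final with WGA SPA beads; 1 h at room temperature, then scintillation counting.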
For orientation: In a scintillation proximity assay essentially only radioactivity close to the scintillant gives light.

In a further assay the target is T2, human A2B (Homo sapiens, UniProt P29275).
T2 construct: expressed in transfected cells; host or cells: HEK293
T2 sequence (P29275 1-332): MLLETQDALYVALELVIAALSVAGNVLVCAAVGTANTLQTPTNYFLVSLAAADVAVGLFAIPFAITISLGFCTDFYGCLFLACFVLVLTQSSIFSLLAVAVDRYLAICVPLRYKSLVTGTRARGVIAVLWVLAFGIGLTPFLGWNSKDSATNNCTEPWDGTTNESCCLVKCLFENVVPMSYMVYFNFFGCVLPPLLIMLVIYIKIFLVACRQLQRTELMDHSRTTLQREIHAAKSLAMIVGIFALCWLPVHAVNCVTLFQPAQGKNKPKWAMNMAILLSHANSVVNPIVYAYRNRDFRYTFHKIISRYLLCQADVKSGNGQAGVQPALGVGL
Description: cAMP HTRF assay for Gs coupled receptor, agonist test. The class given is cell-based. As to conditions: agonist activity; HEK293 cells expressing recombinant human A2B; read-out: A2BAR EC50. Summed up:
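Recombinant cells were incubated 30 min at room temperature with increasing agonist concentrations. Lysis buffer with cAMP-d2 and anti-cAMP cryptate was added, with 1 h at room temperature before the HTRF fluorescence ratio was read. Reference compounds were run in parallel.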

Broadly, the EC50 is the concentration at which the effect is half-maximal. As to `COCCOc1ccc(-c2c(C#N)c(SCc3cccnn3)nc(C3CC3)c2C#N)cc1` [Compound 233], the EC50 (in assay [1]; at human A2B) was over 10000 nM throughout.

On to `COCCOc1ccc(-c2c(C#N)c(SCCO)nc(N3CCCC3)c2C#N)cc1` [Compound 117], for which the EC50 in assay [1] was 997 nM; at human A2B it was over 10000 nM.

Take `N#Cc1c(N)nc(SCc2cncnc2)c(C#N)c1-c1ccc(OCCO)cc1` [Compound 175]: the 50% effective concentration (EC50) in assay [1] turned out to be 20 nM; at human A2B it was 0.9 nM.

`N#Cc1c(N)nc(SCc2n[nH]c3ccccc23)c(C#N)c1-c1ccc(OCCO)cc1` [Compound 207]: the EC50 in assay [1] came out at 739 nM; at human A2B, 108 nM.

As to `COCCOc1ccc(-c2c(C#N)c(N)nc(SCC3CCOC3)c2C#N)cc1` (stereo not drawn) [Compound 36], the EC50 in assay [1] is 124 nM; at human A2B it was over 10000 nM.

As to `COCC(F)(F)Oc1ccc(-c2c(C#N)c(N)nc(SCc3cccnc3)c2C#N)cc1` [Compound 306], the EC50 is 353 nM in assay [1] and over 10000 nM on human A2B.

`N#Cc1c(N)nc(SCCC(F)(F)F)c(C#N)c1-c1ccc(OC2CCCOC2)cc1` (stereo not drawn) [Compound 325]: the EC50 (in assay [1]; on human A2B) was over 10000 nM each time.

On to `N#Cc1c(SCC2COC2)nc(N2CC(F)(F)C2)c(C#N)c1-c1ccc(OCCO)cc1` [Compound 273], for which the EC50 was 295 nM in assay [1] and over 10000 nM at human A2B.

With `N#Cc1c(SCC2COC2)nc(N2CC(O)C2)c(C#N)c1-c1ccc(OCCO)cc1` [Compound 274], the values for the half-maximal effective concentration (EC50) (in assay [1]; at human A2B) were 75.2 nM and over 10000 nM, respectively.

As for `COCCOc1ccc(-c2c(C#N)c(SCC3COC3)nc(N3CC(F)(F)C3)c2C#N)cc1` [Compound 269], the EC50 in assay [1] was 615 nM; at human A2B, over 10000 nM.

Consider `N#Cc1c(N)nc(SCc2cccc3[nH]ccc23)c(C#N)c1-c1ccc(OCCO)cc1` [Compound 8], for which the EC50 in assay [1] worked out at 37.1 nM; at human A2B, 37.7 nM.

Consider `COCCOc1ccc(-c2c(C#N)c(N)nc(SCc3cccc4c3CCO4)c2C#N)cc1` [Compound 212], for which the EC50 is 7600 nM in assay [1] and over 10000 nM on human A2B.

On to `N#Cc1c(SCc2cccnc2)nc(N2CCC2)c(C#N)c1-c1ccc(OC(F)(F)CO)cc1` [Compound 259, 2-(Azetidin-1-yl)-4-(4-(1,1-difluoro-2-hydroxyethoxy)phenyl)-6-((pyridin-3-ylmethyl)thio)pyridine-3,5-dicarbonitrile], for which the EC50 was over 10000 nM in assay [1] and 198 nM on human A2B.

Turning to `COCCOc1ccc(-c2c(C#N)c(N)nc(SCc3cccc(OC)c3)c2C#N)cc1` [Compound 37], the concentration giving a half-maximal response (EC50) in assay [1] is 139 nM; at human A2B it was over 10000 nM.

Regarding `CN(C)CCSc1nc(N)c(C#N)c(-c2ccc(OCCO)cc2)c1C#N` [Compound 132], the EC50 in assay [1] is over 10000 nM; on human A2B it was 645 nM.

In the case of `COCCOc1ccc(-c2c(C#N)c(N)nc(SCC(C)O)c2C#N)cc1` (stereo not drawn) [Compound 127], the results for the EC50 (in assay [1]; at human A2B) were 91 nM and over 10000 nM, respectively.

Consider `CNc1nc(SCC2COC2)c(C#N)c(-c2ccc(OC3COC3)cc2)c1C#N` [Compound 230], for which the EC50 in assay [1] was 5.2 nM; at human A2B, over 10000 nM.

Turning to `Cc1ccc(CSc2nc(N3CCC3)c(C#N)c(-c3ccc(OCCO)cc3)c2C#N)cn1` [Compound 69], the EC50 in assay [1] came out at 201 nM; on human A2B, 26.3 nM.

Regarding `COCCOc1ccc(-c2c(C#N)c(N)nc(SCc3ccc4cc[nH]c4c3)c2C#N)cc1` [Compound 44], the EC50 in assay [1] is 34.3 nM; on human A2B, over 10000 nM.

As to `COCCOc1ccc(-c2c(C#N)c(SCC3COC3)nc(N3CCC3)c2C#N)cc1` [Compound 62], the EC50 was 350 nM in assay [1] and at least 10000 nM at human A2B.

As for `COC1CC(Oc2ccc(-c3c(C#N)c(N)nc(SCC4CCOC4)c3C#N)cc2)C1` (stereo not drawn) [Compound 321], the EC50 (in assay [1]; at human A2B) was over 10000 nM each time.

As for `N#Cc1c(SCc2cccnc2)nc(N2CC(F)C2)c(C#N)c1-c1ccc(OC2COC2)cc1` [Compound 271], the EC50 was found to be 30.3 nM in assay [1] and 116 nM on human A2B.

As for `COCCOc1ccc(-c2c(C#N)cnc(SCCO)c2C#N)cc1` [Compound 94], the 50% effective concentration (EC50) was 1010 nM in assay [1] and over 10000 nM on human A2B.

For `N#Cc1c(N)nc(OCCC2COC2)c(C#N)c1-c1ccc(OC2COC2)cc1` [Compound 307], the EC50 (in assay [1]; on human A2B) was over 10000 nM in each case.

Take `CNCCSc1nc(N)c(C#N)c(-c2ccc(OCCOC)cc2)c1C#N` [Compound 140]: the EC50 in assay [1] was 7500 nM; at human A2B, over 10000 nM.

As to `N#Cc1c(N)nc(SCC2COCOC2)c(C#N)c1-c1ccc(OC2COC2)cc1` [Compound 297], the values for the concentration giving a half-maximal response (EC50) (in assay [1]; at human A2B) were 1100 nM and over 10000 nM, respectively.

As to `COCCOc1ccc(-c2c(C#N)c(OC)nc(SCc3cccnc3)c2C#N)cc1` [Compound 283], the EC50 (in assay [1]; at human A2B) was over 10000 nM throughout.

For the compound `N#Cc1c(N)nc(OCC2CCOCC2)c(C#N)c1-c1ccc(OC2COC2)cc1` [Compound 298], the EC50 in assay [1] was 229 nM; at human A2B, over 10000 nM.

As to `CC(Sc1nc(N)c(C#N)c(-c2ccc(OC3COC3)cc2)c1C#N)C1COC1` (stereo not drawn) [Compound 285], the half-maximal effective concentration (EC50) in assay [1] was 958 nM; on human A2B, over 10000 nM.

As to `CC(=O)NCCSc1nc(N)c(C#N)c(-c2ccc(OCCO)cc2)c1C#N` [Compound 119], the EC50 in assay [1] is 161 nM; at human A2B, 925 nM.

For the compound `COCCOc1ccc(-c2c(C#N)c(N)nc(SCc3ccccc3)c2C#N)cc1` [Compound 152], the EC50 in assay [1] is 92 nM; on human A2B, over 10000 nM.

As for `N#Cc1c(N)nc(SCC2(O)COC2)c(C#N)c1-c1ccc(OCCO)cc1` [Compound 313], the EC50 is 55 nM in assay [1] and over 10000 nM on human A2B.

In the case of `CC(C)(O)COc1ccc(-c2c(C#N)c(SCc3cccnc3)nc(N3CCC3)c2C#N)cc1` [Compound 49], the EC50 was 311 nM in assay [1] and 65 nM at human A2B.

In the case of `N#Cc1cnc(SCc2cccnc2)c(C#N)c1-c1ccc(OCCO)cc1` [Compound 84], the values for the EC50 (in assay [1]; on human A2B) were 44 nM and 6.8 nM, respectively.

For the compound `COCCOc1ccc(-c2c(C#N)c(N)nc(SCc3nccc4[nH]ccc34)c2C#N)cc1` [Compound 217], the EC50 (in assay [1]; at human A2B) was over 10000 nM each time.

As for `COc1cccc(CSc2nc(N)c(C#N)c(-c3ccc(OC4COC4)cc3)c2C#N)c1` [Compound 33], the concentration for a half-maximal effect (EC50) was 7.9 nM in assay [1] and 563 nM at human A2B.
